PMC11742723, “The clinical-stage drug BTZ-043 accumulates in murine tuberculosis lesions and efficiently acts against Mycobacterium tuberculosis” (Nature Communications, 2025)
Values joined by “and” are separate entries in the source; they are usually repeats but may differ in a detail not shown here. Equal entries are not always repeated. Where two headings read alike, the source gives them in different places.

How the values were obtained:
[1] = LCM coupled LC-MS/MS of necrotic granulomas and non-necrotic regions; format: in vivo, IL-13tg mice; settings: for concentration at 4 h: IL-13tg, mouse, oral
Method: Necrotic granulomas and non-necrotic regions were dissected from 2 to 3 γ−irradiated serial lung cryosections (thickness: 12 µm) using a PALM Microbeam (Zeiss, Oberkochen, Germany). Laser-dissected tissues were captured in an ascorbic acid solution (2.5 mg/mL) to prevent the degradation of BTZ-043 and stored at -80 °C. Samples were thawed on ice before drying in the SpeedVac. For reconstitution 80 µL of an 80% ACN/ 20% FA, containing 20 ng/mL reserpine and d4-BTZ-043, were added. The samples were vortexed for 1 min and kept in an ultrasonic bath for 3 min. Subsequently, the samples were centrifuged (10 min, 15,000 × g). The supernatant was transferred into a glass vial and 5 µL was injected into the LC. The LC settings and MS parameters were the same as described for the tissue mimetics (Supplementary Methods). As internal standard d4-BTZ-043 was utilized, with the m/z-transitions 436.0 → 86.0 (cone voltage of 30 V, collision energy of 30 eV, dwell time of 0.2 s) as quantifier. With the expected very low concentrations of the analyte in the LCM material, the deuterated standard was applied to better mimic matrix effects and recovery for this analysis. For calibration curve preparation lung homogenate from drug-naïve mice was added to 80% ACN/20% FA (1%), containing reserpine (as QC) and d4-BTZ-043 (20 ng/mL per sample) to the final solution containing about 0.44 µg tissue/mL, which equals the average weight of the obtained material of the LCM. After centrifugation (5 min, 15,000 × g) the supernatant was spiked with BTZ-043 to yield a calibration curve ranging from 0.00015–0.025 µg/mL.

Mtb [2] = test system: Mtb; set-up: method as in PMID 28821804; settings: NOS2-deficient mice, 50 mg/kg/day, cited from earlier work
Mtb [3] = test system: Mtb; set-up: method as in PMID 39793592; settings: phase IIa EBA, 250 mg - 1750 mg once daily for 14 days; cited from earlier work
[4] = MALDI imaging and penetration analysis in centrally necrotizing granulomas; settings: for BTZ-043 distribution in granulomas by MALDI imaging: IL-13tg mice
[5] = LCM flakes from adjacent area (non necrotic), 4h post administration, listed as BTZ

Compound: C[C@H]1COC2(CCN(c3nc(=O)c4cc(C(F)(F)F)cc([N+](=O)[O-])c4s3)CC2)O1 [BTZ-043]
- concentration at 4 h ([1]; TB granulomas laser-dissected from lung cryosections, 250 mg/kg, 4 h after administration, assumed tissue density 1 g/mL, read-out: mean BTZ-043 concentration within TB granulomas): 570 ng/mL
- concentration at 4 h ([1]; lung, laser-dissected necrotic granuloma, 250 mg/kg, LCM flakes from granulome area (granuloma), IL-13tg mouse lung cryosections, 4h post administration, read-out: ng/mg lung tissue, technical replicate 2): 495 ng/g
- concentration at 4 h ([1]; lung, laser-dissected necrotic granuloma, 250 mg/kg, LCM flakes from granulome area (granuloma), mean of 2 technical replicates, 4h post administration, read-out: ng/mg lung tissue, Mean): 430 ng/g
- concentration at 4 h ([1]; lung, whole cryosection, 250 mg/kg, whole cryosection from OT207 (QC, internal control), 4h post administration, read-out: ng/mg lung tissue, technical replicate 1): 779 ng/g
- concentration at 4 h ([1]; lung, whole cryosection, 250 mg/kg, whole cryosection from OT207 (QC, internal control), 4h post administration, read-out: ng/mg lung tissue, technical replicate 2): 846 ng/g
- concentration at 4 h ([1]; lung, whole cryosection, 250 mg/kg, whole cryosection from OT207 (QC, internal control), mean of 2 technical replicates, 4h post administration, read-out: ng/mg lung tissue, Mean): 810 ng/g
- concentration at 4 h ([1]; necrotic granulomas laser-dissected from lung cryosections, 250 mg/kg/day, IL-13tg mouse, 250 mg/kg/day 10 days, 4 h after application, read-out: mean BTZ-043 concentration in necrotic granulomas): 570 ng/g
- concentration at 4 h ([1]; non-necrotic regions laser-dissected from lung cryosections, 250 mg/kg/day, IL-13tg mouse, 250 mg/kg/day 10 days, 4 h after application, read-out: mean BTZ-043 concentration in non-necrotic regions): 340 ng/g
- concentration at 4 h ([1]; 250 mg/kg, LCM flakes from adjacent area (non necrotic), 4h post administration, read-out: ng/mg lung tissue, technical replicate 1): 388 ng/g
- concentration at 4 h ([1]; 250 mg/kg, LCM flakes from adjacent area (non necrotic), 4h post administration, read-out: ng/mg lung tissue, technical replicate 2): 371 ng/g
- concentration at 4 h ([1]; 250 mg/kg, LCM flakes from adjacent area (non necrotic), mean of 2 technical replicates, 4h post administration, read-out: ng/mg lung tissue, Mean): 380 ng/g
- ng/mg lung tissue, technical replicate 1 [1, 5]: 0.303 ng/mg lung tissue and 0.478 ng/mg lung tissue
- ng/mg lung tissue, technical replicate 2 [1, 5]: 0.299 ng/mg lung tissue and 0.205 ng/mg lung tissue
- ng/mg lung tissue, Mean ([1]; LCM flakes from adjacent area (non necrotic), mean of 2 technical replicates, 4h post administration, listed as BTZ): 0.30 ng/mg lung tissue and 0.34 ng/mg lung tissue
- ng/mg lung tissue, Mean ([1]; LCM flakes from granulome area (granuloma), mean of 2 technical replicates, 4h post administration, listed as BTZ): 0.66 ng/mg lung tissue and 0.65 ng/mg lung tissue
- bactericidal activity (Mtb [2]; 4 weeks of treatment): profound bactericidal activity
- effect on bacterial burden (Mtb [2]; two weeks): hardly reduced the bacterial burden
- bacterial killing with increasing dose in TB patients (Mtb [3]): no obvious further increase in bacterial killing above daily doses of 1000 mg
- BTZ-043 distribution in granulomas by MALDI imaging ([4]; 0.5 h and 2 h after the last administration): higher intensity in the layer of foamy macrophages than in the surrounding tissue and a low intensity in the necrotic center
- BTZ-043 distribution in granulomas by MALDI imaging ([4]; 4 h after the last administration): evenly distributed across the granuloma, including a full penetration of the necrotic center
- BTZ-043 distribution in granulomas by MALDI imaging ([4]; 8 h post-dose): still detected in the cellular compartment and the necrotic center of the lesion
- BTZ-043 distribution in lung section by MALDI imaging ([4]; IL-13tg mouse, 2 h post-dose, 10 µm pixel size): higher abundance in the granuloma areas
- Mean intensity ([4]; Left Granuloma, Distance 5 μm): 139.49
- Mean intensity ([4]; Left Granuloma, Distance 15 μm): 156.7
- Mean intensity ([4]; Left Granuloma, Distance 25 μm): 198.34
- Mean intensity ([4]; Left Granuloma, Distance 455 μm): 231.69
- Mean intensity ([4]; Left Granuloma, Distance 465 μm): 177.77
- Mean intensity ([4]; Left Granuloma, Distance 475 μm): 149.66
- Mean intensity ([4]; Left Granuloma, Distance 485 μm): 141.47
- Mean intensity ([4]; Left Granuloma, Distance 495 μm): 108.37
- Mean intensity ([4]; Left Granuloma, Distance -5 μm): 119.73
- Mean intensity ([4]; Left Granuloma, Distance -15 μm): 101.17
- Mean intensity ([4]; Left Granuloma, Distance -25 μm): 94.994
- Mean intensity ([4]; Left Granuloma, Distance -35 μm): 92.517
- Mean intensity ([4]; Left Granuloma, Distance -45 μm): 79.172
- Mean intensity ([4]; Left Granuloma, Distance -55 μm): 80.027
- Mean intensity ([4]; Left Granuloma, Distance -65 μm): 75.696
- Mean intensity ([4]; Left Granuloma, Distance -75 μm): 68.605
- Mean intensity ([4]; Left Granuloma, Distance -85 μm): 57.747
- Mean intensity ([4]; Left Granuloma, Distance -95 μm): 55.134
- Mean intensity ([4]; Left Granuloma, Distance -105 μm): 53.791
- Mean intensity ([4]; Left Granuloma, Distance -115 μm): 50.259
- Mean intensity ([4]; Left Granuloma, Distance -125 μm): 46.467
- Mean intensity ([4]; Left Granuloma, Distance -135 μm): 47.503
- Mean intensity ([4]; Left Granuloma, Distance -145 μm): 45.623
- Mean intensity ([4]; Left Granuloma, Distance -155 μm): 45.907
- Mean intensity ([4]; Left Granuloma, Distance -165 μm): 44.835
- Mean intensity ([4]; Left Granuloma, Distance -175 μm): 48.409
- Mean intensity ([4]; Left Granuloma, Distance -185 μm): 51.437
- Mean intensity ([4]; Left Granuloma, Distance -195 μm): 54.977
- Mean intensity ([4]; Left Granuloma, Distance -205 μm): 58.044
- Mean intensity ([4]; Left Granuloma, Distance -215 μm): 59.813
- Mean intensity ([4]; Left Granuloma, Distance -225 μm): 62.899
- Mean intensity ([4]; Left Granuloma, Distance -235 μm): 60.823
- Mean intensity ([4]; Left Granuloma, Distance -245 μm): 67.44
- Mean intensity ([4]; Left Granuloma, Distance -255 μm): 69.7
- Mean intensity ([4]; Left Granuloma, Distance -265 μm): 69.289
- Mean intensity ([4]; Left Granuloma, Distance -275 μm): 70.893
- Mean intensity ([4]; Left Granuloma, Distance -285 μm): 72.505
- Mean intensity ([4]; Left Granuloma, Distance -295 μm): 79.349
- Mean intensity ([4]; Left Granuloma, Distance -305 μm): 78.856
- Mean intensity ([4]; Left Granuloma, Distance -315 μm): 77.402
- Mean intensity ([4]; Left Granuloma, Distance -325 μm): 81.899
- Mean intensity ([4]; Left Granuloma, Distance -335 μm): 87.061
- Mean intensity ([4]; Left Granuloma, Distance -345 μm): 86.34
- Mean intensity ([4]; Left Granuloma, Distance -355 μm): 78.295
- Mean intensity ([4]; Left Granuloma, Distance -365 μm): 77.954
- Mean intensity ([4]; Left Granuloma, Distance -375 μm): 75.379
- Mean intensity ([4]; Left Granuloma, Distance -385 μm): 74.434
- Mean intensity ([4]; Left Granuloma, Distance -395 μm): 71.834
- Mean intensity ([4]; Left Granuloma, Distance -405 μm): 68.248
- Mean intensity ([4]; Left Granuloma, Distance -415 μm): 72.627
- Mean intensity ([4]; Left Granuloma, Distance -425 μm): 59.053
- Mean intensity ([4]; Left Granuloma, Distance -435 μm): 63.125
- Mean intensity ([4]; Left Granuloma, Distance -445 μm): 62.385
- Mean intensity ([4]; Right Granuloma, Distance 5 μm): 197.71
- Mean intensity ([4]; Right Granuloma, Distance 15 μm): 215.58
- Mean intensity ([4]; Right Granuloma, Distance -5 μm): 125.01
- Mean intensity ([4]; Right Granuloma, Distance -15 μm): 127.96
- Mean intensity ([4]; Right Granuloma, Distance -25 μm): 106.25
- Mean intensity ([4]; Right Granuloma, Distance -35 μm): 89.663
- Mean intensity ([4]; Right Granuloma, Distance -45 μm): 81.533
- Mean intensity ([4]; Right Granuloma, Distance -55 μm): 68.214
- Mean intensity ([4]; Right Granuloma, Distance -65 μm): 66.172
- Mean intensity ([4]; Right Granuloma, Distance -75 μm): 61.043
- Mean intensity ([4]; Right Granuloma, Distance -85 μm): 54.281
- Mean intensity ([4]; Right Granuloma, Distance -95 μm): 56.521
- Mean intensity ([4]; Right Granuloma, Distance -105 μm): 53.591
- Mean intensity ([4]; Right Granuloma, Distance -115 μm): 52.38
- Mean intensity ([4]; Right Granuloma, Distance -125 μm): 54.234
- Mean intensity ([4]; Right Granuloma, Distance -135 μm): 48.899
- Mean intensity ([4]; Right Granuloma, Distance -145 μm): 60.041
- Mean intensity ([4]; Right Granuloma, Distance -155 μm): 59.51
- Mean intensity ([4]; Right Granuloma, Distance -165 μm): 58.931
- Mean intensity ([4]; Right Granuloma, Distance -175 μm): 63.443
- Mean intensity ([4]; Right Granuloma, Distance -185 μm): 66.482
- Mean intensity ([4]; Right Granuloma, Distance -195 μm): 69.634
- Mean intensity ([4]; Right Granuloma, Distance -205 μm): 66.172
- Mean intensity ([4]; Right Granuloma, Distance -215 μm): 74.546
- Mean intensity ([4]; Right Granuloma, Distance -225 μm): 72.092
- Mean intensity ([4]; Right Granuloma, Distance -235 μm): 66.755
- Mean intensity ([4]; Right Granuloma, Distance -245 μm): 74.961
- Mean intensity ([4]; Right Granuloma, Distance -255 μm): 64.422
- Mean intensity ([4]; Right Granuloma, Distance -265 μm): 67.123
- Mean intensity ([4]; Right Granuloma, Distance -275 μm): 62.093
- Mean intensity ([4]; Right Granuloma, Distance -285 μm): 63.383
- Mean intensity ([4]; Right Granuloma, Distance -295 μm): 60.578
- Mean intensity ([4]; Right Granuloma, Distance -305 μm): 57.529
- Mean intensity ([4]; Right Granuloma, Distance -315 μm): 54.535
- Mean intensity ([4]; Right Granuloma, Distance -325 μm): 51.043
- Mean intensity ([4]; Right Granuloma, Distance -335 μm): 51.438
- Mean intensity ([4]; Right Granuloma, Distance -345 μm): 52.76
- Mean intensity ([4]; Right Granuloma, Distance -355 μm): 52.538
- Mean intensity ([4]; Right Granuloma, Distance -365 μm): 48.918
- Mean intensity ([4]; Right Granuloma, Distance -375 μm): 51.113
- Mean intensity ([4]; Right Granuloma, Distance -385 μm): 46.016
- Mean intensity ([4]; Right Granuloma, Distance -395 μm): 55.943
- Mean intensity ([4]; Right Granuloma, Distance -405 μm): 55.946
- Mean intensity ([4]; Right Granuloma, Distance -415 μm): 56.244
- Mean intensity ([4]; Right Granuloma, Distance -425 μm): 54.068
- Mean intensity ([4]; Right Granuloma, Distance -435 μm): 59.943
- Mean intensity ([4]; Right Granuloma, Distance -445 μm): 57.116
